Read-outs that look alike come from different tables or passages of the source.
What was measured:
[1] = system: corn; test: Test A preemergence; type: in vivo, Zea mays; details: Zea mays, pre-emergence, 240 h; for Corn plant response rating (crop injury, 0 = no effect, 100 = complete kill) at 125 g/ha: 125 g ai/ha, visual injury after 10 days, 0 to 100 scale, 0 is no effect, 100 is complete control; for Corn plant response rating (crop injury, 0 = no effect, 100 = complete kill) at 500 g/ha: 500 g ai/ha, 0 to 100 scale (0 no effect, 100 complete control), 10 days
In short: (§1)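 Seeds in loam–sand blend received a directed preemergence soil spray of compound in non-phytotoxic solvent with surfactant; postemergence plants (2–10 cm, one- to two-leaf stage) were sprayed with the same formulation. After 10 days in greenhouse, injury was rated visually versus untreated controls, 0 (no effect) to 100 (complete control).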

[2] = system: kochia; test: Test A preemergence; type: in vivo, Bassia scoparia; details: Bassia scoparia, pre-emergence, 240 h, read-out: Plant response rating, Kochia; for pest or weed control at 125 g/ha: 125 g ai/ha, visual injury after 10 days, 0 to 100 scale, 0 is no effect, 100 is complete control; for pest or weed control at 500 g/ha: 500 g ai/ha, 0 to 100 scale (0 no effect, 100 complete control), 10 days
In short: as §1

[3] = system: rice; test: Test B flooded paddy test; type: in vivo, Oryza sativa; details: Oryza sativa, 312 h; 250 g ai/ha, Flood, 13 days, 0 to 100 scale (0 no effect, 100 complete control); read-out: Plant response rating, Rice
In short: (§2)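 Visual scores from 0 (no effect) to 100 (complete kill) were assigned 13 days after treatment by comparison with controls. Seedlings had been treated at two leaves by adding compound to floodwater standing 3 cm deep, kept at that level in the greenhouse.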

[4] = system: wheat; test: Test A preemergence; type: in vivo, Triticum aestivum; details: Triticum aestivum, pre-emergence, 240 h, read-out: Plant response rating, Wheat; for plant injury at 125 g/ha: 125 g ai/ha, visual injury after 10 days, 0 to 100 scale, 0 is no effect, 100 is complete control; for plant injury at 500 g/ha: 500 g ai/ha, 0 to 100 scale (0 no effect, 100 complete control), 10 days
In short: as §1

[5] = system: horseweed; test: Test A postemergence; type: in vivo, Erigeron canadensis; details: Erigeron canadensis, post-emergence, 240 h, postemergence, 10 days, 0 to 100 scale (0 no effect, 100 complete control); for pest or weed control at 125 g/ha: 125 g ai/ha; for pest or weed control at 500 g/ha: 500 g ai/ha
In short: as §1

[6] = system: soybean; test: Test A postemergence; type: in vivo, Glycine max; details: Glycine max, post-emergence, 240 h, postemergence, 10 days, 0 to 100 scale (0 no effect, 100 complete control); for plant injury at 500 g/ha: 500 g ai/ha, visual injury, read-out: Plant response rating, Soybean
In short: as §1

[7] = system: kochia; test: Test A postemergence; type: in vivo, Bassia scoparia; details: Bassia scoparia, post-emergence, 240 h, postemergence, 10 days, 0 to 100 scale (0 no effect, 100 complete control); for pest or weed control at 125 g/ha: 125 g ai/ha; for pest or weed control at 500 g/ha: 500 g ai/ha
In short: as §1

[8] = system: ryegrass, Italian; test: Test A preemergence; type: in vivo, Lolium multiflorum; details: Lolium multiflorum, pre-emergence, 240 h, read-out: Plant response rating, Ryegrass, Italian; for pest or weed control at 125 g/ha: 125 g ai/ha, visual injury after 10 days, 0 to 100 scale, 0 is no effect, 100 is complete control; for pest or weed control at 500 g/ha: 500 g ai/ha, 0 to 100 scale (0 no effect, 100 complete control), 10 days
In short: as §1

[9] = system: barnyardgrass; test: Test B flooded paddy test; type: in vivo, Echinochloa crus-galli; details: Echinochloa crus-galli, 312 h, 250 g ai/ha, Flood, 13 days, 0 to 100 scale (0 no effect, 100 complete control); read-out: Plant response rating, Barnyardgrass
In short: as §2

[10] = system: ragweed; test: Test A preemergence; type: in vivo, Ambrosia artemisiifolia; details: Ambrosia artemisiifolia, pre-emergence, 240 h, read-out: Plant response rating, Ragweed; for pest or weed control at 125 g/ha: 125 g ai/ha, visual injury after 10 days, 0 to 100 scale, 0 is no effect, 100 is complete control; for pest or weed control at 500 g/ha: 500 g ai/ha, 0 to 100 scale (0 no effect, 100 complete control), 10 days
In short: as §1

[11] = system: corn; test: Test A postemergence; type: in vivo, Zea mays; details: Zea mays, post-emergence, 240 h, postemergence, 10 days, 0 to 100 scale (0 no effect, 100 complete control); for Corn plant response rating (crop injury, 0 = no effect, 100 = complete kill) at 500 g/ha: 500 g ai/ha
In short: as §1

[12] = system: pigweed, palmer; test: Test A preemergence; type: in vivo, Amaranthus palmeri; details: Amaranthus palmeri, pre-emergence, 240 h, read-out: Plant response rating, Pigweed, Palmer; for pest or weed control at 125 g/ha: 125 g ai/ha, visual injury after 10 days, 0 to 100 scale, 0 is no effect, 100 is complete control; for pest or weed control at 500 g/ha: 500 g ai/ha, 0 to 100 scale (0 no effect, 100 complete control), 10 days
In short: as §1

[13] = system: oat, wild; test: Test A preemergence; type: in vivo, Avena fatua; details: Avena fatua, pre-emergence, 240 h, read-out: Plant response rating, Oat, Wild; for pest or weed control at 125 g/ha: 125 g ai/ha, visual injury after 10 days, 0 to 100 scale, 0 is no effect, 100 is complete control; for pest or weed control at 500 g/ha: 500 g ai/ha, 0 to 100 scale (0 no effect, 100 complete control), 10 days
In short: as §1

[14] = system: ducksalad; test: Test B flooded paddy test; type: in vivo, Heteranthera limosa; details: Heteranthera limosa, 312 h, 250 g ai/ha, Flood, 13 days, 0 to 100 scale (0 no effect, 100 complete control); read-out: Plant response rating, Ducksalad
In short: as §2

[15] = visual injury, read-out: Plant response rating, Horseweed
[16] = visual injury, read-out: Plant response rating, Kochia

Structure (SMILES) | Corn plant response rating (crop injury, 0 = no effect, 100 = complete kill) at 125 g/ha [1] [%] | Corn plant response rating (crop injury, 0 = no effect, 100 = complete kill) at 500 g/ha [1] [%] | pest or weed control at 125 g/ha [2] [%] | pest or weed control at 500 g/ha [2] [%] | plant injury at 250 g/ha [3] [%] | plant injury at 125 g/ha [4] [%] | plant injury at 500 g/ha [4] [%] | pest or weed control at 500 g/ha [5, 15] [%] | plant injury at 500 g/ha [6] [%] | pest or weed control at 500 g/ha [7, 16] [%] | pest or weed control at 125 g/ha [8] [%] | pest or weed control at 500 g/ha [8] [%] | pest or weed control at 250 g/ha [9] [%] | pest or weed control at 125 g/ha [10] [%] | pest or weed control at 500 g/ha [10] [%] | Corn plant response rating (crop injury, 0 = no effect, 100 = complete kill) at 500 g/ha ([11]; visual injury) [%] | pest or weed control at 125 g/ha [12] [%] | pest or weed control at 500 g/ha [12] [%] | pest or weed control at 125 g/ha [13] [%] | pest or weed control at 500 g/ha [13] [%] | other results
C[C@H]1CN(C(=O)c2cccc(-n3cnc(C4CCC4)n3)c2)c2cccc(Cl)c2O1 [Compound 93, [(2S)-8-Chloro-2,3-dihydro-2-methyl-4H-1,4-benzoxazin-4-yl][3-(3-cyclobutyl-1H-1,2,4-triazol-1-yl)phenyl]methanone] | 10 | 10 | 50 | 100 | 0 | 0 | 10 | 40 | 100 | 90 | 90 | 100 | 0 | 0 | 0 | 90 | 90 | 100 | 20 | 90 | pest or weed control at 125 g/ha ([5]; read-out: Horseweed plant response rating): 0%; plant injury at 125 g/ha ([6]; 125 g ai/ha, read-out: Soybean plant response rating): 100%; pest or weed control at 125 g/ha ([7]; read-out: Kochia plant response rating): 80%; plant injury at 125 g/ha ([11]; 125 g ai/ha, read-out: Corn plant response rating): 60%; pest or weed control at 250 g/ha [14]: 0%
Cc1ccc(-n2cnc(C(C)C)n2)cc1C(=O)N1C[C@H](C)Oc2c(Cl)cccc21 [Compound 73, [(2S)-8-Chloro-2,3-dihydro-2-methyl-4H-1,4-benzoxazin-4-yl][2-methyl-5-[3-(1-methylethyl)-1H-1,2,4-triazol-1-yl]phenyl]methanone] | 60 | 80 | 100 | 100 | 20 | 20 | 80 | 50 | 100 | 100 | 90 | 100 | 45 | 30 | 90 | 70 | 100 | 100 | 80 | 90 | pest or weed control at 125 g/ha [5, 15]: 30%; pest or weed control at 125 g/ha [7, 16]: 90%; Corn plant response rating (crop injury, 0 = no effect, 100 = complete kill) at 125 g/ha ([11]; 125 g ai/ha, visual injury): 70%; pest or weed control at 250 g/ha [14]: 70%

From patent US20260262643A1, “HERBICIDAL BENZOXAZINES” (FMC CORPORATION, priority 2022, published 2026)
